# In patent publication US7833513B2, “Treatment of Alzheimer's Disease” (Rhode Island Hospital, priority 2004, dated 2010):
# What was measured:
# Assay type in all cases: in vivo, Long Evans rat
# [1] = test system: GFAP, HNE, 8-OHdG, ChAT immunoreactivity; test: ic-STZ ± PPAR agonist: immunohistochemical staining of brain; conditions: for ChAT immunoreactivity: basal forebrain region; for 8-OHdG immunoreactivity / GFAP immunoreactivity / HNE immunoreactivity: temporal cortex
# Description: Histopathological and Immunohistochemical Staining Studies: Whole fresh brains were immersion fixed in Histofix (Amresco, Solon, Ohio) and then sectioned in the coronal plane along standardized landmarks, embedded in paraffin, and processed for histopathological studies. In addition, fresh brains were sectioned in the coronal plane to obtain a ˜3 mm thick slice that flanked the infundibulum. The 3-mm brain slice was snap frozen between two slabs of dry ice, and then stored at −80° C. for later RNA and protein studies. The residual tissue was immersion fixed and processed for histopathological studies. […] As negative controls for the immunostaining reactions, either the primary antibody was omitted or non-relevant monoclonal antibody to Hepatitis B virus was used in place of the relevant antibody. Immunoreactivity was detected using the avidin-biotin horseradish peroxidase complex method (S. M. de la Monte, T. Luong, T. R. Neely, D. Robinson, J. R. Wands. Mitochondrial DNA damage as a mechanism of cell loss in Alzheimer's disease. Lab Invest 80(8) (2000), 1323-35). All sections were examined under code.
# Increased levels of 8-OHdG and 4-hydroxynonenol (HNE) have been detected in brains with AD (W. R. Markesbery, J. M. Carney. Oxidative alterations in Alzheimer's disease. Brain Pathol 9(1) (1999), 133-46, L. M. Sayre, D. A. Zelasko, P. L. Harris, G. Perry, R. G. Salomon, M. A. Smith. 4-Hydroxynonenal-derived advanced lipid peroxidation end products are increased in Alzheimer's disease. J Neurochem 68(5) (1997), 2092-7). […] In addition, it was of interest to relate indices of oxidative stress to GFAP immunoreactivity, which reflects astrocytic responses to tissue injury. Paraffin-embedded histological sections of brain were immunostained to detect GFAP, 8-OHdG or HNE using the ABC method with DAB as the chromogen (brown precipitate) and light hematoxylin as the counterstain.
# IGF-II receptor = molecular target: T1, IGF-II receptor (Rattus norvegicus, UniProt G3V824); test: ic-STZ ± PPAR agonist: equilibrium and saturation binding to IGF-II receptors in the brain; conditions: for BMAX, IGF-II receptor saturation binding in brains of treated rats: [125I]-IGF-II tracer, pooled brain membranes, 4 weeks after ic-STZ ± IP PPAR agonist
# T1 construct: from tissue; host or cells: rat brain (temporal lobe)
# T1 sequence (G3V824 36-2481): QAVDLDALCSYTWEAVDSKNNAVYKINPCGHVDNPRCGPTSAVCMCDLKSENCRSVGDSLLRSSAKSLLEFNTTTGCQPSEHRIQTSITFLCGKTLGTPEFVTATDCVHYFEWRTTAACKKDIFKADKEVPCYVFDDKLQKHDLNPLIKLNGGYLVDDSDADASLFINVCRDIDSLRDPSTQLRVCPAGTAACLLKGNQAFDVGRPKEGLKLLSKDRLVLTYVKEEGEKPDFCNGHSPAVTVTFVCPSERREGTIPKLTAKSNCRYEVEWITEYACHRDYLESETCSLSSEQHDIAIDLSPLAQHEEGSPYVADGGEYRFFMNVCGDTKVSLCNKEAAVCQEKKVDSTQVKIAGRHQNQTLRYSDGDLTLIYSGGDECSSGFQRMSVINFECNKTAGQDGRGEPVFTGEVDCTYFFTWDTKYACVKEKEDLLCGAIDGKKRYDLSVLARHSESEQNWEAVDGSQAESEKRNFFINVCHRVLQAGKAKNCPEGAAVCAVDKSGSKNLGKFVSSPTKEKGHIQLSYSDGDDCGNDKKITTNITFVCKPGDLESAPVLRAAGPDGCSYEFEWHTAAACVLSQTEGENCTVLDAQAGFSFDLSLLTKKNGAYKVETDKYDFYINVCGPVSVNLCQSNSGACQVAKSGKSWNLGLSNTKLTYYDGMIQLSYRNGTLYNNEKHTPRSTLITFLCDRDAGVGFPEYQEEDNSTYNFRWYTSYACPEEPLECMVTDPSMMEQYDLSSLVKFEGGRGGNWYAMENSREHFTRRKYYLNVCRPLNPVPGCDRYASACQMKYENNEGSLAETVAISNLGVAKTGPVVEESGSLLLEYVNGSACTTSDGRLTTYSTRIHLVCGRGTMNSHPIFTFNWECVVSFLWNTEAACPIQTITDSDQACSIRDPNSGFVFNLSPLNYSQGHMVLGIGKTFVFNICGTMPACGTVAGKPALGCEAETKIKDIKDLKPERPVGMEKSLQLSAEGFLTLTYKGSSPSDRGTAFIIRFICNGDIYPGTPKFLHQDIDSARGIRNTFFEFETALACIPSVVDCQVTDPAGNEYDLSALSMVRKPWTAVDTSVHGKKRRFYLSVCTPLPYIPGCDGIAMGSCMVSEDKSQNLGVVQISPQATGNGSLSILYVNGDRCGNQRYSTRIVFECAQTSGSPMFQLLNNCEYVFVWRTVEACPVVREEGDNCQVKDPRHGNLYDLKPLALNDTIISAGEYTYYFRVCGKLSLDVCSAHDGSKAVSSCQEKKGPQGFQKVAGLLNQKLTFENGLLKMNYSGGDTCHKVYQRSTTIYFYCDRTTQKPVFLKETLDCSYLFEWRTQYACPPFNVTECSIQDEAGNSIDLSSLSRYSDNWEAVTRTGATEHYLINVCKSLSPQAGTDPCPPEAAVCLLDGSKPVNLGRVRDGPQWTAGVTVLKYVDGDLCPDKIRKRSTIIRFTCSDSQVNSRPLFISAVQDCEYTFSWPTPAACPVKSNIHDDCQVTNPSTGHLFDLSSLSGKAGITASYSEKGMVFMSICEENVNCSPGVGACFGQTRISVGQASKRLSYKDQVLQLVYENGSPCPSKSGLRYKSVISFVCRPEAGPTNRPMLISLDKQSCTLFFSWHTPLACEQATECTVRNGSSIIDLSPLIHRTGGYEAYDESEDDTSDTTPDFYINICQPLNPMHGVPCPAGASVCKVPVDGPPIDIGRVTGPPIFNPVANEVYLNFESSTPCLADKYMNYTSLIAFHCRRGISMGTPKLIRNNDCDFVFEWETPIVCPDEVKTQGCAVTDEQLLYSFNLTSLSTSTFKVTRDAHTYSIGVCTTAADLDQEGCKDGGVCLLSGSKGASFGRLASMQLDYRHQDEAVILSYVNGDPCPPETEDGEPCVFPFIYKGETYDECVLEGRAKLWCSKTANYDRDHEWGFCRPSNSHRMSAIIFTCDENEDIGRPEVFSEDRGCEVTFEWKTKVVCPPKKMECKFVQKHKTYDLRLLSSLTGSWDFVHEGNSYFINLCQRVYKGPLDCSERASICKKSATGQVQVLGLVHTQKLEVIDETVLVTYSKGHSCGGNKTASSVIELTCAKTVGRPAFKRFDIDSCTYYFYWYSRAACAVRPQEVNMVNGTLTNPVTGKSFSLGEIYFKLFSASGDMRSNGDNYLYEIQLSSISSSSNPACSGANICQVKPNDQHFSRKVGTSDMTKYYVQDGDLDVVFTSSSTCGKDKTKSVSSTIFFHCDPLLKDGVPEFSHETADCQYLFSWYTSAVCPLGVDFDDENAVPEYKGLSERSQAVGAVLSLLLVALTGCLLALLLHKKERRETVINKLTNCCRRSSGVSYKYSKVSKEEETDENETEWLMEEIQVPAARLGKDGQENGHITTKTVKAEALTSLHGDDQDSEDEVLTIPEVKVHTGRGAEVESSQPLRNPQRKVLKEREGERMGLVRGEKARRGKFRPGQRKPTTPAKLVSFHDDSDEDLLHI
# Description: (§1) On the same day, sub-sets of the ic-STZ group were given a single intra-peritoneal injection of vehicle (saline), or a PPAR-α (GW7647; 25 ug/Kg), PPAR-δ (L-165,041; 2 μg/Kg), or PPAR-γ (F-L-Leu; 20 μg/Kg) activator (CalBiochem, Carlsbad, Calif.). […] In addition, at 4 weeks of age, memory and learning were evaluated using a Morris Water Maze (R. W. Hickey, M. Akino, S. Strausbaugh, G. M. De Courten-Myers. Use of the Morris water maze and acoustic startle chamber to evaluate neurologic injury after asphyxial arrest in rats. Pediatr Res 39(1) (1996), 77-84). The procedures and use of rats in these experiments were approved by the Lifespan-Rhode Island Hospital IACUC committee.
# Membrane protein extracted from fresh frozen brain tissue was used for competitive equilibrium and saturation binding assays. For total binding in equilibrium binding assays, duplicate samples were incubated in 100 μl reactions containing binding buffer (100 mM HEPES, pH 8.0, 118 mM NaCl, 1.2 mM MgSO4, 8.8 mM dextrose, 5 mM KCl, 1% bovine serum albumin) and 100 nCi/ml of [^125I] […] To measure total binding in saturation binding assays, samples from 8-12 brains per group were pooled in equal proportions, and duplicate samples were incubated in 100 μl reactions containing binding buffer and 0.0031 to 1 μCi/ml of [^125I] […] To detect non-specific binding in the equilibrium and saturation binding assays, duplicate reactions were incubated with the same concentrations of radiolabeled tracer plus 0.1 μM unlabeled (cold) competitive ligand. After 16 hours incubation at 4° C., bound radiolabeled tracer was precipitated with bovine gamma globulin and polyethylene glycol 8000. The precipitate (bound ligand) and supernatant (free ligand) fractions were counted in an LKB CompuGamma CS Gamma counter. Specific binding was calculated by subtracting fmols of non-specific binding, i.e. amount bound in the presence of excess cold ligand, from total fmols bound in the absence of unlabeled competitive ligand. GraphPad Prism 4 software (San Diego, Calif.) was used to calculate saturation binding (BMAX) and binding affinity (Kd) for each data set.
# brain gene expression = test: ic-STZ ± PPAR agonist: real time quantitative RT-PCR of temporal lobe, hypothalamus, cerebellum; conditions: for ic-STZ associated reductions in IGF-II expression: rat, in vivo; for APP gene expression / Tau gene expression: temporal lobe and hypothalamus; for APP mRNA relative to control and ic-STZ: cerebella
# Description: as §1
# Real Time Quantitative RT-PCR: Total RNA isolated from the temporal lobe, hypothalamus, and cerebellum was reverse transcribed using the AMV First Strand cDNA synthesis kit (Roche Diagnostics Corporation, Indianapolis, Ind.) and random oligodeoxynucleotide primers. […] In addition, pathological shifts in cell type associated with ic-STZ-mediated neurodegeneration were detected by measuring the mRNA levels of Hu (neurons), GFAP (astrocytes), myelin-associated glycloprotein (MAG-1; oligodendroglia), and allograft inflammatory factor-1 (AIF-1; microglia) (E. J. Rivera, A. Goldin, N. Fulmer, R. Tavares, J. R. Wands, S. M. de la Monte, J. Alzheimers Dis 8(3) (2005), 247-68). Ribosomal 18S RNA levels measured in parallel reactions were used to calculate the relative abundance of each mRNA transcript (J. E. Yeon, S. Califano, J. Xu, J. R. Wands, S. M. De La Monte. Potential role of PTEN phosphatase in ethanol-impaired survival signaling in the liver. Hepatology 38(3) (2003), 703-14, J. Xu, J. Eun Yeon, H. Chang, G. Tison, G. Jun Chen, J. R. Wands, et al. Ethanol impairs insulin-stimulated neuronal survival in the developing brain: Role of PTEN phosphatase. J Biol Chem (2003)). The gene expression levels were measured by real time quantitative RT-PCR Relative mRNA abundance was determined from the ng ratios of specific mRNA to 18S (J. E. Yeon, S. Califano, J. Xu, J. R. Wands, S. M. De La Monte. Potential role of PTEN phosphatase in ethanol-impaired survival signaling in the liver. Hepatology 38(3) (2003), 703-14, J. Xu, J. Eun Yeon, H. Chang, G. Tison, G. Jun Chen, J. R. Wands, et al. Ethanol impairs insulin-stimulated neuronal survival in the developing brain: Role of PTEN phosphatase. J Biol Chem (2003)).
SMILES,ChAT immunoreactivity [1],8-OHdG immunoreactivity [1],GFAP immunoreactivity [1],HNE immunoreactivity [1],"BMAX, IGF-II receptor saturation binding in brains of treated rats (IGF-II receptor) [fmol/mg protein]",ChAT expression (brain gene expression; cerebellum),Hu gene expression (brain gene expression; hypothalamus),ic-STZ associated reductions in IGF-II expression (brain gene expression),NOX 1 mRNA (brain gene expression; temporal lobe),APP gene expression (brain gene expression),APP mRNA relative to control and ic-STZ (brain gene expression),AChE mRNA compared with ic-STZ treatment alone (brain gene expression; cerebellum),AIF-1 (microglia) expression relative to ic-STZ group (brain gene expression; cerebellum),GFAP (astrocytes) expression relative to ic-STZ group (brain gene expression; cerebellum),Hu (neurons) expression relative to ic-STZ group (brain gene expression; cerebellum),IGF-I mRNA relative to control (brain gene expression; cerebellum),IGF-II receptor mRNA (brain gene expression; cerebellum),AChE mRNA (brain gene expression; hypothalamus),IGF-I receptor mRNA (brain gene expression; temporal lobe and cerebellum),Tau gene expression (brain gene expression),other results
"CC(C)(Sc1ccc(CCN(CCCCC2CCCCC2)C(=O)NC2CCCCC2)cc1)C(=O)O [PPAR-α agonist, GW7647]",variably increased,conspicuously reduced,no clear effect,no clear effect,7.291,significantly increased,significantly increased,variably prevented,significantly reduced,significantly reduced,–,–,–,–,–,–,–,–,–,–,MAG-1 gene expression (brain gene expression; hypothalamus): increased
"CC(C)C[C@H](NC(=O)OCC1c2ccccc2-c2ccccc21)C(=O)O [PPAR-γ agonist, F-L-Leu]",variably increased,conspicuously reduced,–,moderately reduced,9.223,significantly increased,–,variably prevented,significantly reduced,significantly reduced,significantly higher,significantly reduced,increased,decreased,increased,significantly increased,significantly increased,significantly increased,significantly increased,restored Tau gene expression to control levels,–
"CCCc1c(OCCCOc2ccc(OCC(=O)O)cc2)ccc(C(C)=O)c1O [PPAR-δ agonist, L-165,041]",variably increased,conspicuously reduced,conspicuously reduced,conspicuously reduced,20.22,significantly increased,significantly increased,–,comparable to control,–,significantly higher,significantly reduced,increased,decreased,increased,significantly increased,significantly increased,significantly increased,significantly increased,restored Tau gene expression to control levels,"IGF-II receptor binding (IGF-II receptor; cerebellum): significantly increased; BMAX for IGF-II receptor (in words) vs ic-STZ group (IGF-II receptor; rat, in vivo): increased; NOS 2 mRNA (brain gene expression; temporal lobe): comparable to control; p53 mRNA (brain gene expression; temporal lobe): comparable to control"
CN(N=O)C(=O)NC1C(O)OC(CO)C(O)C1O (stereo not shown) [STZ],markedly reduced,–,–,–,6.431,–,–,–,significantly increased,–,–,–,–,–,–,–,–,significantly increased,–,–,"binding to IGF-II receptors (IGF-II receptor; temporal lobe and cerebellum): reduced; IGF-II receptor expression (brain gene expression; hypothalamus): did not significantly impair; IGF-I mRNA (brain gene expression; hypothalamus and cerebellum): not significantly reduced; IGF-I receptor expression (brain gene expression; hypothalamus and cerebellum): significantly reduced; AChE expression (brain gene expression; temporal lobe): significantly reduced; IGF-I receptor expression (brain gene expression; temporal lobe): did not significantly impair; NOS 2 mRNA (brain gene expression; temporal lobe): significantly increased; NOS 3 mRNA (brain gene expression; temporal lobe): significantly increased; p53 mRNA (brain gene expression; temporal lobe): significantly increased; ChAT mRNA (brain gene expression; temporal lobe and cerebellum): significantly reduced; IGF-II receptor expression (brain gene expression; temporal lobe and cerebellum): significantly reduced; insulin receptor gene expression (brain gene expression; temporal lobe, hypothalamus, cerebellum): significantly reduced"
